The data set has as its target APOL1. The note with it: ASO.

Values joined by “and” are separate entries in the source; they are usually repeats but may differ in a detail not shown here. Equal entries are not always repeated. After the bases stand the sugars from the 5' end (letter, count) and the backbone: PS all phosphorothioate, else s phosphorothioate and o phosphodiester by linkage. Methylation of C is not given here. e = 2'-O-(2-methoxyethyl) (MOE); k = constrained ethyl (cEt); d = 2'-deoxy (DNA)

Take “ATTCTCATGGTACAGG (sugars kkkddddkekeddddd, PS)”: the target mRNA inhibition (A431, 0.0156 µM) stood at 15%; the target mRNA inhibition (A431, 0.0625 µM) was determined as 41%; the target mRNA inhibition (A431, 0.25 µM) amounted to 73%; the target mRNA inhibition (A431, 1 µM) was 83%; the target mRNA inhibition (A431, 2 µM) is 94%.
“ATTCTCATGGTACAGG (sugars kkkddddkekekdddd, PS)” registered a target mRNA inhibition (A431, 2 µM) of 70%.
Consider “CAACACATCATTGGGT (sugars kkddddekekeddddd, PS)”, for which the target mRNA inhibition (A431, 2 µM) was 80%.
As to CAAGGCTTTTGATGAC (sugars k4 d9 k3, PS), the target mRNA inhibition (A431, 0.0625 µM) was 28%; the target mRNA inhibition (A431, 0.25 µM) came to 58%; the target mRNA inhibition (A431, 1 µM) was 75%.
Under “A431, 2 µM”, “CACATCATTGGGTTAT (sugars k2 d4 e4 k2 d4, PS)” yielded a target mRNA inhibition of 54%.
Still for that read-out and setting: the figure for “CACATCATTGGGTTAT (sugars k3 d4 k3 e1 d5, PS)” is 78%; for “CACATCATTGGGTTAT (sugars kkddddkekekkdddd, PS)” it is 34%.
As for CACCCTCTTTATCCCC (sugars k4 d9 k3, PS), the target mRNA inhibition by setting is: (A431, 0.0625 µM) 47% and 62%; (A431, 0.25 µM) 76% and 82%; (A431, 1 µM) 90%.
As for “CACTTTATACCAGTGT (sugars kkddddkekekddddd, PS)”, where the note is “A431, 2 µM”, the target mRNA inhibition was determined as 14%.
Regarding CAGATGTGTTTAGGCA (sugars k4 d9 k3, PS), the target mRNA inhibition (A431, 0.0625 µM) is 78%; the target mRNA inhibition (A431, 0.25 µM) came to 93%; the target mRNA inhibition (A431, 1 µM) turned out to be 96%.
Consider CAGCTATGGAAATGCC (sugars k4 d9 k3, PS), for which the target mRNA inhibition by setting is: (A431, 0.0625 µM) 34%; (A431, 0.25 µM) 58%; (A431, 1 µM) 79%.
Consider CAGTCAGCAGGAGTAG (sugars k4 d9 k3, PS), for which the target mRNA inhibition (A431, 0.0625 µM) is 30%; the target mRNA inhibition (A431, 0.25 µM) was 54%; the target mRNA inhibition (A431, 1 µM) came out at 65%.
For the sequence “CAGTTTTGTAAGTGCA (sugars kdddddkekekddddd, PS)”, the target mRNA inhibition by setting is: (A431, 0.0156 µM) 0%; (A431, 0.0625 µM) 52%; (A431, 0.25 µM) 79%; (A431, 1 µM) 91%; (A431, 2 µM) 92%.
For “CAGTTTTGTAAGTGCA (sugars kkddddkdkdkddddd, PS)”, the target mRNA inhibition by setting is: (A431, 0.04 µM) 41%; (A431, 1 µM) 95%; (A431, 2 µM) 95%.
“CATTCAGAATTTCCAC (sugars k3 d4 k3 e1 d5, PS)”: the target mRNA inhibition came to 5% (A431, 0.0156 µM); 25% (A431, 0.0625 µM); 64% (A431, 0.25 µM); 82% (A431, 1 µM); 92% (A431, 2 µM).
“CATTCAGAATTTCCAC (sugars kddddkekekeddddd, PS)” yielded a target mRNA inhibition (A431, 2 µM) of 58%.
The same measure, in the same setting: the figure for “CATTCAGAATTTCCAC (sugars kekddddeekkddddd, PS)” is 89%.
As to “CCGTCAATATATTCTT (sugars k2 d4 e3 k2 d5, PS)”, the target mRNA inhibition is, setting by setting: (A431, 0.0156 µM) 28%; (A431, 0.04 µM) 50%; (A431, 0.0625 µM) 61%; (A431, 0.25 µM) 86%; (A431, 1 µM) 96%; (A431, 2 µM) 98%.
CCTCATTGCAAATCCT (sugars k4 d9 k3, PS): the target mRNA inhibition was 54% (A431, 0.0625 µM); 84% (A431, 0.25 µM); 96% (A431, 1 µM).
Consider CCTTATGCTTACTCCA (sugars k4 d9 k3, PS), for which the target mRNA inhibition by setting is: (A431, 0.0625 µM) 68%; (A431, 0.25 µM) 82%; (A431, 1 µM) 93%.
Regarding “CGCAATGCTGACTTGG (sugars kkdddddkekeddddd, PS)”, the target mRNA inhibition was 11% (A431, 0.0156 µM); 44% (A431, 0.0625 µM); 80% (A431, 0.25 µM); 93% (A431, 1 µM); 96% (A431, 2 µM).
The matching figures for “CGCAATGCTGACTTGG (sugars kkddddekekeddddd, PS)”: 22%, 48%, 80%, 93% and 94%.
As to “CGCAATGCTGACTTGG (sugars kkddddkekekkdddd, PS)”, the target mRNA inhibition (A431, 2 µM) came out at 60%.
Still for that read-out and setting: under “CGCAATGCTGACTTGG (sugars kkkddddkekekdddd, PS)” stands 68%; under “CGTCAATATATTCTTT (sugars kkddddekekeddddd, PS)”, 90%; under “CGTGTTATATTTGATC (sugars kkddddekekeddddd, PS)”, 76%.
The same measure, in the same setting: under “CTAATTTTCTGACTGT (sugars kkddddkdkdkddddd, PS)” stands 84%.
“CTAATTTTCTGACTGT (sugars kkddddkekekkdddd, PS)”: for the setting “A431, 2 µM”, the target mRNA inhibition came to 71%.
On the same count and under the same terms, under “CTATTAGAGGGCTAGT (sugars kddddkekekeddddd, PS)” stands 34%.
As for CTCATTATCAGTCAGC (sugars k4 d9 k3, PS), the target mRNA inhibition by setting is: (A431, 0.0625 µM) 57%; (A431, 0.25 µM) 65%; (A431, 1 µM) 64%.
Under “A431, 2 µM”, “CTGAAGATTGGCTCTG (sugars kkddddkekekddddd, PS)” displayed a target mRNA inhibition of 45%.
On to “CTGAAGATTGGCTCTG (sugars kkkddddkekekdddd, PS)”, for which the target mRNA inhibition (A431, 2 µM) was 36%.
Consider CTGTGATGTGGGACTT (sugars k4 d9 k3, PS), for which the target mRNA inhibition by setting is: (A431, 0.0625 µM) 50%; (A431, 0.25 µM) 76%; (A431, 1 µM) 89%.
In turn, “CTGTTCTAACTCTTGG (sugars kkddddekekeddddd, PS)” displayed a target mRNA inhibition (A431, 0.0156 µM) of 43%; a target mRNA inhibition (A431, 0.0625 µM) of 64%; a target mRNA inhibition (A431, 0.25 µM) of 83%; a target mRNA inhibition (A431, 1 µM) of 92%; a target mRNA inhibition (A431, 2 µM) of 97%.
With “CTTTAAACTCAGGTGA (sugars k3 d4 k3 e1 d5, PS)”, under “A431, 2 µM”, the target mRNA inhibition is 59%.
“CTTTAAACTCAGGTGA (sugars kddddkekekeddddd, PS)” showed a target mRNA inhibition (A431, 2 µM) of 70%.
The same measure, in the same setting: the figure for “CTTTAAACTCAGGTGA (sugars kkddddkdkdkddddd, PS)” is 89%.
For CTTTATACCAGTGTCT (sugars k3 d10 k3, PS), the target mRNA inhibition came to 30% (A431, 0.0625 µM); 65% (A431, 0.25 µM); 88% (A431, 1 µM).
The sequence “CTTTATACCAGTGTCT (sugars kkddddkdkdkddddd, PS)” registered a target mRNA inhibition (A431, 2 µM) of 92%.
Same read-out and setting: under “CTTTATACCAGTGTCT (sugars kkkddddkdkdkdddd, PS)” stands 87%.
For the sequence GAAATGAACGCAATGC (sugars k4 d9 k3, PS), the target mRNA inhibition is, setting by setting: (A431, 0.0625 µM) 42%; (A431, 0.25 µM) 71%; (A431, 1 µM) 87%.
Regarding “GAACGCAATGCTGACT (sugars k2 d4 e3 k2 d5, PS)”, the target mRNA inhibition was 20% (A431, 0.0156 µM); 42% (A431, 0.0625 µM); 77% (A431, 0.25 µM); 92% (A431, 1 µM); 95% (A431, 2 µM).
Consider GAACGCAATGCTGACT (sugars k3 d10 k3, PS), for which the target mRNA inhibition is, setting by setting: (A431, 0.0625 µM) 14%; (A431, 0.25 µM) 50%; (A431, 1 µM) 76%.
In the case of “GAAGATTGGCTCTGGC (sugars k3 d4 k3 e1 d5, PS)”, the target mRNA inhibition (A431, 2 µM) was 70%.
The same measure, in the same setting: under “GAAGATTGGCTCTGGC (sugars kddddkekekeddddd, PS)” stands 21%; under “GAAGATTGGCTCTGGC (sugars kekddddeekkddddd, PS)”, 87%; under “GAAGATTGGCTCTGGC (sugars kkddddkekekkdddd, PS)”, 10%.
Still for that read-out and setting: under “GAAGCTTTAAACTCAG (sugars kkddddkekekddddd, PS)” stands 84%.
Take GAATTATGGAATTGCA (sugars k4 d9 k3, PS): the target mRNA inhibition reads like this: (A431, 0.0625 µM) 59%; (A431, 0.25 µM) 82%; (A431, 1 µM) 92%.
Consider “GAATTATGGAATTGCA (sugars kkddddkekekddddd, PS)”, for which, under “A431, 2 µM”, the target mRNA inhibition turned out to be 51%.
Turning to GAGAACATTGAAACAC (sugars k3 d10 k3, PS), the target mRNA inhibition reads like this: (A431, 0.0625 µM) 19%; (A431, 0.25 µM) 65%; (A431, 1 µM) 86%.
For the setting “A431, 2 µM”, “GAGTATTGTTTTTGTG (sugars k3 d4 k3 e1 d5, PS)” had a target mRNA inhibition of 88%.
“GAGTATTGTTTTTGTG (sugars kekddddeekkddddd, PS)” displayed a target mRNA inhibition (A431, 2 µM) of 90%.
Turning to “GAGTATTGTTTTTGTG (sugars kkddddekekeddddd, PS)”, the target mRNA inhibition (A431, 0.0156 µM) worked out at 40%; the target mRNA inhibition (A431, 0.04 µM) was 47% and 50%; the target mRNA inhibition (A431, 0.0625 µM) amounted to 78%; the target mRNA inhibition (A431, 0.25 µM) came out at 92%; the target mRNA inhibition (A431, 1 µM) was determined as 97%; the target mRNA inhibition (A431, 2 µM) came out at 98%.
Sequence “GAGTATTGTTTTTGTG (sugars kkkddddkekeddddd, PS)” showed a target mRNA inhibition (A431, 2 µM) of 81%.
On to GAGTCATTAGTGCTAT (sugars k4 d9 k3, PS), for which the target mRNA inhibition is, setting by setting: (A431, 0.0625 µM) 53%; (A431, 0.25 µM) 77%; (A431, 1 µM) 85%.
As to GAGTCATTTGCTAGGT (sugars k4 d9 k3, PS), the target mRNA inhibition (A431, 0.0625 µM) stood at 78%; the target mRNA inhibition (A431, 0.25 µM) was 89%; the target mRNA inhibition (A431, 1 µM) is 92%.
The matching figures for GATTCTGTGTGCTCAC (sugars k4 d9 k3, PS): 46%, 72% and 87%.
In the same order, the values of GCAAGGCTAAGTTCCG (sugars k4 d9 k3, PS) are 79%, 92% and 97%.

Source of the values: the OligoGym collection.
